In brackets after ≈: the same amount, converted by molar mass.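 Following 48 hours of exposure in 96-well plates, responses at five concentrations were used to interpolate endpoints linearly. GI50 = concentration required for 50% inhibition of growth. The concentration for full growth arrest is given as TGI.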

Data on 15 compounds can be found in PubChem BioAssay (NCI).

Some test systems named below: ACHN renal; CCRF-CEM leukemia; HCT-15 colon; HS 578T breast; NCI-H522 lung; NCI/ADR-RES ovarian; RPMI-8226 leukemia; SF-268 CNS; SW-620 colon; SNB-75 CNS.
Holding throughout (assay): growth of human tumour cells (NCI), 48 h

Turning to `NS(=O)(=O)c1ccc(Nc2c3ccccc3nc3c(C(=O)NC(CO)(CO)CO)cccc23)cc1`, the TGI in the assay with ACHN renal was 0.508 µM; in the assay with CCRF-CEM leukemia, 0.891 µM; in the assay with HCT-15 colon, 0.948 µM; in the assay with HS 578T breast it was 0.44 µM; in the assay with NCI-H522 lung, 0.306 µM; in the assay with NCI/ADR-RES ovarian, over 1 µM. The TGI in the assay on RPMI-8226 leukemia was 0.683 µM; with SF-268 CNS, 0.486 µM; in the assay with SW-620 colon, 0.435 µM.
With `O=C1CCNC/C1=C\c1ccccc1`, the TGI in the assay on ACHN renal was 78 µM; in the assay with HCT-15 colon it was 50.1 µM; with NCI-H522 lung, 23.4 µM; with RPMI-8226 leukemia it was 83.6 µM; with SF-268 CNS, 45 µM; with SNB-75 CNS it was over 100 µM. This compound returned a TGI in the assay with SW-620 colon of 95.3 µM.
Turning to `CCCC(O)c1ccc2[nH]c3c(C)cc([N+](=O)[O-])c(C)c3c2c1` (centres undefined), the TGI in the assay with ACHN renal, in the assay on CCRF-CEM leukemia, in the assay on HCT-15 colon, with NCI-H522 lung, in the assay on RPMI-8226 leukemia and with SF-268 CNS was over 100 µM each time. Besides, the TGI in the assay with SNB-75 CNS and in the assay on SW-620 colon was over 100 µM each time.
Take `O=C(CC(C(=O)c1ccsc1)c1cccs1)c1cccs1` (centres undefined): the TGI in the assay on ACHN renal, in the assay on CCRF-CEM leukemia, in the assay with HCT-15 colon, with NCI-H522 lung, in the assay on RPMI-8226 leukemia and in the assay on SF-268 CNS was over 100 µM each time. In addition, the TGI in the assay on SNB-75 CNS and in the assay with SW-620 colon was over 100 µM each time.
With `C=CC[PH+](c1ccccc1)c1ccccc1.C=CC[PH+](c1ccccc1)c1ccccc1.[Pt+2].[S-]c1nc2ccccc2[nH]1.[S-]c1nc2ccccc2[nH]1`, the GI50 with ACHN renal was 3.89 µM; with CCRF-CEM leukemia, 1.9 µM; in the assay on HCT-15 colon it was 6.34 µM; in the assay on NCI/ADR-RES ovarian it was 47.1 µM; with RPMI-8226 leukemia it was 0.401 µM; in the assay with SF-268 CNS it was 2.77 µM. Moreover, the GI50 in the assay with SNB-75 CNS is 1.2 µM. Besides, the TGI was over 100 µM in the assay on ACHN renal; over 100 µM in the assay with CCRF-CEM leukemia; over 100 µM with HCT-15 colon; over 100 µM in the assay with NCI/ADR-RES ovarian; 3.22 µM in the assay on RPMI-8226 leukemia; over 100 µM in the assay with SF-268 CNS. In addition, the TGI in the assay with SNB-75 CNS was found to be 3.89 µM.
On to `Cc1cc2c3ccccc3n3c2c2c1OC1(C)CCC(C2C1)C3(C)C` (centres undefined), for which the TGI with ACHN renal, with CCRF-CEM leukemia, in the assay with HCT-15 colon, in the assay with NCI-H522 lung, in the assay on RPMI-8226 leukemia and in the assay with SF-268 CNS was over 25 µM in each case. Further, the TGI with SW-620 colon is over 25 µM.
Consider `COc1cc2c(cc1C)NC(=O)/C2=C/c1c(Cl)[nH]c2ccccc12`, for which the TGI in the assay on ACHN renal is 22.4 µM; in the assay with CCRF-CEM leukemia, 17.2 µM; with HCT-15 colon, 14.6 µM; with HS 578T breast, 28.7 µM; in the assay on NCI-H522 lung, 20.5 µM; in the assay with RPMI-8226 leukemia, over 100 µM. The TGI in the assay on SF-268 CNS turned out to be 17.7 µM; with SNB-75 CNS it was 21.7 µM; with SW-620 colon it was 19.6 µM.
For the compound `COc1ccc(N2C(=O)[C@@H]3[C@@H]4CC(C)CC[C@@H]4c4c([nH]c5ccccc45)[C@@H]3C2=O)cc1` (some centres undefined), the TGI with ACHN renal is 26.9 µM; in the assay with CCRF-CEM leukemia, over 100 µM; in the assay with HCT-15 colon, over 50.2 µM; with NCI-H522 lung it was over 55 µM; in the assay with SF-268 CNS it was 37.9 µM; in the assay on SNB-75 CNS, 12.4 µM. For the same compound, the TGI with SW-620 colon was determined as 47.7 µM.
For the compound `CCOC(=O)CN(CC)C(=O)NC12CC3CC(CC(C3)C1)C2`, the TGI with CCRF-CEM leukemia is 631 µM; with HCT-15 colon, 646 µM; with NCI-H522 lung, 493 µM; in the assay with NCI/ADR-RES ovarian, over 680 µM; with RPMI-8226 leukemia, 454 µM; in the assay with SF-268 CNS, over 750 µM. Further, the TGI with SNB-75 CNS is 316 µM; in the assay with SW-620 colon, over 750 µM.
Turning to `COC(=O)CC(=O)OC1C[C@@H]2CCC3C(C)(C)CCC[C@]3(C)C23CC[C@@]1(C)C3` (some centres undefined), the TGI in the assay on ACHN renal was 31.7 µM; in the assay with CCRF-CEM leukemia it was over 100 µM; with HCT-15 colon it was 36.1 µM; in the assay with NCI-H522 lung it was 25.7 µM; with RPMI-8226 leukemia, over 100 µM; with SF-268 CNS, 35.9 µM. Also, the TGI in the assay on SNB-75 CNS worked out at 51.2 µM; in the assay on SW-620 colon, 32.1 µM.
Turning to `Cc1c2ccncc2c(C)c2c1[nH]c1ccc(O)cc12`, the GI50 is 0.0158 µg/mL in the assay with CCRF-CEM leukemia; 0.0107 µg/mL in the assay with HCT-15 colon; 0.0217 µg/mL in the assay with RPMI-8226 leukemia; 22600 µM in the assay on SNB-75 CNS; 0.0267 µg/mL (≈ 0.102 µM) in the assay with SW-620 colon. Also, the TGI with CCRF-CEM leukemia was 0.31 µg/mL; with HCT-15 colon it was 0.361 µg/mL; in the assay with NCI-H522 lung, 0.172 µg/mL; in the assay with RPMI-8226 leukemia it was 0.129 µg/mL; in the assay on SW-620 colon, 3.94 µg/mL.
With `CCCCCCNC(=O)CCN(C(=O)O)S(=O)(=O)c1ccc(NC(=O)c2ccccc2)cc1`, the TGI was over 100 µM with ACHN renal; 52.3 µM with CCRF-CEM leukemia; over 58.4 µM in the assay with HCT-15 colon; over 100 µM in the assay with NCI-H522 lung; 54.4 µM in the assay with RPMI-8226 leukemia; over 100 µM in the assay with SF-268 CNS. For the same compound, the TGI in the assay with SNB-75 CNS was over 100 µM; with SW-620 colon, 30.6 µM.
As for `COC1=CC(=O)C2(C=C1OC)OC[C@H]1Oc3c(ccc4c3C=CC(C)(C)O4)C(=O)[C@H]12` (some centres undefined), the TGI is over 100 µM in the assay with ACHN renal; over 100 µM with CCRF-CEM leukemia; 51.5 µM in the assay on NCI-H522 lung; 49.3 µM with RPMI-8226 leukemia; over 100 µM with SNB-75 CNS; over 100 µM in the assay on SW-620 colon.
Consider `CN1C/C(=C\c2ccccc2)C2=NN(C(N)=S)[C@H](c3ccccc3)[C@@H]2C1`, for which the TGI in the assay on ACHN renal, in the assay on CCRF-CEM leukemia, with HCT-15 colon, with NCI-H522 lung, in the assay on SF-268 CNS and with SW-620 colon was over 100 µM each time.
As to `COc1ccc(/C=C(\C#N)c2ccccn2)cc1OC`, the TGI is over 100 µM with ACHN renal; over 100 µM in the assay on CCRF-CEM leukemia; over 100 µM in the assay on HCT-15 colon; over 100 µM in the assay on NCI-H522 lung; 55.7 µM with NCI/ADR-RES ovarian; over 100 µM with RPMI-8226 leukemia. The TGI in the assay with SF-268 CNS is over 100 µM; in the assay with SNB-75 CNS, 84.9 µM; in the assay with SW-620 colon, over 100 µM.
